Experimental findings from patent US9827229B2, “Small molecule securinine and norsecurinine analogs and their use in cancers, inflammatory diseases and infections” (INVENIO THERAPEUTICS INC., priority 2013, dated 2017) are described below.

pIC50: −log10 of the molar value. Like-named read-outs stand apart in the source and are kept apart here.

Broadly, the pIC50 is the negative decadic logarithm of the IC50, by convention in mol/L. Read a high pIC50 as a low IC50. The term IC50 denotes the concentration that gives 50% inhibition.

One series relates to OCI. Description: Growth inhibition of AML cell line OCI. The series is classed as cell-based, human. The text has this: (§1) The analogs were then further tested for inhibiting growth against various cancer cell lines: AML (Mol3, OCI), Colon cancer (HCT116) and Ovary cancer (SKOV3). IC50 are documented in Table 2.
Another series relates to SKOV3 P53−/−. Kind of series: Growth inhibition of ovary cancer SKOV3 P53−/−. The class given is cell-based.
Source text: as §1

A further series has as its system HCT116 P53+/+. Kind of series: Growth inhibition of colon cancer HCT116 P53+/+. The class given is cell-based.
Source text: as §1

The next series deals with MOL3. Kind of series: Growth inhibition of AML cell line MOL3. The series is classed as cell-based, human.
Source text: as §1

Another series deals with HCT116 P53−/−. Kind of series: Growth inhibition of colon cancer HCT116 P53−/−. The class given is cell-based.
Source text: as §1

The subject of another series is SKOV3 P53+/+. Kind of series: Growth inhibition of ovary cancer SKOV3 P53+/+. The series is classed as cell-based.
Source text: as §1

For another series, the system named is HL60 cells. Kind of series: Growth of HL60 cells (IC50). The series is classed as cell-based, human. The conditions noted are these: growth, no unit in head or cell (other cells of the column print uM), read-out: HL-60, IC50. The procedure:
The analogs were then tested and evaluated on the ability to affect differentiation and growth of HL60 cells.

A further series deals with mice. Kind of series: Seizures in mice. The class given is in vivo. The conditions noted are these: due to GABA receptor binding. The text has this: The present invention provides for methods of treating a condition as described herein with less adverse additional effects. As is known in the art, securinine antagonizes the GABAA receptor.
Setting [1] is: Homo sapiens, SK-OV-3, ovary cancer SKOV3 P53−/−.
Setting [2] is: Homo sapiens, HCT-116, colon cancer HCT116 P53+/+.
[3] abbreviates: Homo sapiens, HCT-116, colon cancer HCT116 P53−/−.
The mark [4] stands for this setting: Homo sapiens, SK-OV-3, ovary cancer SKOV3 P53+/+.

Take `O=C1C=C2C(I)=C[C@@H]3C[C@@]2(O1)[C@H]1CCCCN31` [INVS-MG-82-II]: the pIC50 with OCI (Homo sapiens) was 7.00; in the series on SKOV3 P53−/− (setting [1]), 5.51; with HCT116 P53+/+ (setting [2]), 5.85; in the series on MOL3 (Homo sapiens), 7.05; in the series with HCT116 P53−/− (setting [3]), 5.96; with SKOV3 P53+/+ (setting [4]) it was 5.80.

On to `O=C1C=C2C(C#Cc3ccccc3)=C[C@@H]3C[C@@]2(O1)[C@H]1CCCCN31` [INVS-MG-110B], for which the pIC50 with OCI (Homo sapiens) was 7.10; in the series with SKOV3 P53−/− (setting [1]) it was 5.52; in the series with HCT116 P53+/+ (setting [2]) it was 5.72; with MOL3 (Homo sapiens), 7.15; in the series on HCT116 P53−/− (setting [3]), 5.64; with SKOV3 P53+/+ (setting [4]), 5.68.

As for `CN(C)CC#CC1=C[C@@H]2C[C@@]3(OC(=O)C=C13)[C@H]1CCCCN21` [INVS-MG-111B], the pIC50 in the series on OCI (Homo sapiens) is 7.05; in the series on SKOV3 P53−/− (setting [1]), 5.55; in the series on HCT116 P53+/+ (setting [2]), 5.96; with MOL3 (Homo sapiens), 7.15; in the series with HCT116 P53−/− (setting [3]) it was 5.82; with SKOV3 P53+/+ (setting [4]), 5.74.

Turning to `C=C(C)CC#CC1=C[C@@H]2C[C@@]3(OC(=O)C=C13)[C@H]1CCCCN21` [INVS-MG-132A], the pIC50 with OCI (Homo sapiens) was 6.70; in the series on SKOV3 P53−/− (setting [1]), 5.42; with HCT116 P53+/+ (setting [2]) it was 5.62; with HCT116 P53−/− (setting [3]), 5.66; with SKOV3 P53+/+ (setting [4]), 5.62.

Turning to `COc1ccc(C#CC2=C[C@@H]3C[C@@]4(OC(=O)C=C24)[C@H]2CCCCN32)cc1` [INVS-MG-134C], the pIC50 in the series on OCI (Homo sapiens) is 7.10; in the series on SKOV3 P53−/− (setting [1]), 5.55; with HCT116 P53+/+ (setting [2]), 6.00; in the series on MOL3 (Homo sapiens), 7.22; with HCT116 P53−/− (setting [3]), 5.96; with SKOV3 P53+/+ (setting [4]), 5.92.

For `O=C1C=C2C(C#Cc3ccsc3)=C[C@@H]3C[C@@]2(O1)[C@H]1CCCCN31` [INVS-MG-136-III], the pIC50 in the series on OCI was 6.94; in the series with SKOV3 P53−/− (ovary cancer SKOV3 P53−/−) it was 5.96; in the series on HCT116 P53+/+ (colon cancer HCT116 P53+/+), 5.74; in the series with MOL3 it was 7.00; in the series on HCT116 P53−/− (colon cancer HCT116 P53−/−) it was 5.66; in the series with SKOV3 P53+/+ (ovary cancer SKOV3 P53+/+) it was 6.15. Further, the IC50 with HL60 cells (HL-60 cells) is < 0.07 µM.

For `CCCN(CC#CC1=C[C@@H]2C[C@@]3(OC(=O)C=C13)[C@H]1CCCCN21)CCC` [INVS-MG-152A], the pIC50 was 7.15 in the series on OCI (Homo sapiens); 6.15 in the series on SKOV3 P53−/− (setting [1]); 6.05 with HCT116 P53+/+ (setting [2]); 7.10 in the series with MOL3 (Homo sapiens); 5.72 in the series with HCT116 P53−/− (setting [3]); > 6.22 with SKOV3 P53+/+ (setting [4]).

Take `COc1ccc2cc(C#CC3=C[C@@H]4C[C@@]5(OC(=O)C=C35)[C@H]3CCCCN43)ccc2c1` [INVS-MG-157B]: the pIC50 in the series with SKOV3 P53−/− (setting [1]) is 6.15; with HCT116 P53+/+ (setting [2]) it was 6.15; in the series on MOL3 (Homo sapiens), 7.05; in the series on HCT116 P53−/− (setting [3]) it was 6.05; with SKOV3 P53+/+ (setting [4]), > 6.22. Also, in the series on HL60 cells (Homo sapiens, HL-60, HL-60 cells), the IC50 lay within 0.07 to 0.156 µM.

Regarding `O=C1C=C2C(C#Cc3ccc(OC(F)(F)F)cc3)=C[C@@H]3C[C@@]2(O1)[C@H]1CCCCN31` [INVS-MG-166B], the pIC50 in the series on OCI (Homo sapiens) was < 6.52; with SKOV3 P53−/− (setting [1]) it was 5.49; in the series on HCT116 P53+/+ (setting [2]) it was 5.62; in the series with MOL3 (Homo sapiens), < 6.52; in the series on HCT116 P53−/− (setting [3]) it was 5.42; in the series on SKOV3 P53+/+ (setting [4]), 5.46.

Turning to `O=C1C=C2C=C[C@@H]3C[C@@]2(O1)[C@H]1CCCCN31` [Securinine], the seizures in mice entry in the series on mice was “causes seizures”.
